What was measured:
Experiment in all cases: Test C greenhouse herbicide test, pre- and postemergence
Format in all cases: in vivo
[1] = tested on: barnyardgrass (Echinochloa crus-galli)
Outline: (§1)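 Pre- and postemergence greenhouse screen; values are visual control ratings, 0 meaning no effect and 100 complete kill, assigned relative to untreated plants after 13 to 15 d.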

[2] = tested on: blackgrass (Alopecurus myosuroides)
Outline: as §1

corn (Zea mays) = tested on: corn (Zea mays)
Outline: as §1

[3] = tested on: crabgrass, large (large crabgrass, Digitaria sanguinalis)
Outline: as §1

[4] = tested on: foxtail, giant (giant foxtail, Setaria faberii)
Outline: as §1

[5] = tested on: galium (catchweed bedstraw, Galium aparine)
Outline: as §1

[6] = tested on: lambsquarters (Chenopodium album)
Outline: as §1

[7] = tested on: morningglory (Ipomoea coccinea)
Outline: as §1

[8] = tested on: nutsedge, yellow (yellow nutsedge, Cyperus esculentus)
Outline: as §1

[9] = tested on: oilseed rape (Brassica napus)
Outline: as §1

[10] = tested on: ragweed (common ragweed, Ambrosia elatior)
Outline: as §1

[11] = tested on: ryegrass, Italian (Italian ryegrass, Lolium multiflorum)
Outline: as §1

soybean (Glycine max) = tested on: soybean (Glycine max)
Outline: as §1

[12] = tested on: velvetleaf (Abutilon theophrasti)
Outline: as §1

[13] = tested on: waterhemp (common waterhemp, Amaranthus rudis)
Outline: as §1

[14] = Postemergence, 31 g ai/ha, scale 0 to 100 (0 no effect, 100 complete control)
[15] = Postemergence, 62 g ai/ha, 0 to 100 scale (0 no effect, 100 complete control)
[16] = Postemergence, 250 g ai/ha, scale 0 to 100, 0 no effect, 100 complete control, 13 to 15 d
[17] = postemergence, 125 g ai/ha, scale 0 to 100, 0 no effect, 100 complete control
[18] = Preemergence, 31 g ai/ha, scale 0 to 100, 0 is no effect, 100 is complete control
[19] = Preemergence, 62 g ai/ha, scale 0 to 100, 0 is no effect, 100 is complete control
[20] = Preemergence, 125 g ai/ha, scale 0 to 100, 0 is no effect, 100 is complete control
[21] = Preemergence, 250 g ai/ha, scale 0 to 100, 0 no effect, 100 complete control

COC(=O)Oc1c(C)nn(C)c(=O)c1-c1ccc(F)c2ccccc12 [Compound 130]
40: Foxtail, Giant plant response rating [4, 17]
75: Plant response rating, Morningglory [7, 14] | Nutsedge, Yellow plant response rating [8, 15] | Plant response rating, Velvetleaf [12, 14]
35: Plant response rating, Barnyardgrass ([1]; Postemergence, 125 g ai/ha, scale 0 to 100, 0 is no effect, 100 is complete control) | Blackgrass plant response rating [2, 15]
90: Plant response rating, Lambsquarters [6, 14] | Ragweed plant response rating [10, 15] | Plant response rating, Ryegrass, Italian [11, 14] | Ryegrass, Italian plant response rating [11, 15]
10: Plant response rating, Crabgrass, Large [3, 14] | Plant response rating, Soybean (soybean (Glycine max); [14])
0: Plant response rating, Oilseed Rape [9, 14] | Oilseed Rape plant response rating [9, 15] | Plant response rating, Oilseed Rape [9, 16] | Oilseed Rape plant response rating [9, 17]
85: Morningglory plant response rating [7, 17] | Plant response rating, Nutsedge, Yellow [8, 16] | Plant response rating, Ragweed [10, 14] | Waterhemp plant response rating [13, 15]
100: Plant response rating, Lambsquarters [6, 16] | Lambsquarters plant response rating [6, 17] | Plant response rating, Morningglory [7, 16]
80: Morningglory plant response rating [7, 15] | Nutsedge, Yellow plant response rating [8, 17] | Waterhemp plant response rating [13, 17]
50: Plant response rating, Soybean (soybean (Glycine max); [16])
5: Plant response rating, Corn (corn (Zea mays); [14]) | Corn plant response rating (corn (Zea mays); [15]) | Corn plant response rating (corn (Zea mays); [17])
25: Soybean plant response rating (soybean (Glycine max); [17])
95: Plant response rating, Galium [5, 14] | Galium plant response rating [5, 15] | Galium plant response rating [5, 17] | Plant response rating, Ryegrass, Italian [11, 16] | Ryegrass, Italian plant response rating [11, 17]
70: Plant response rating, Foxtail, Giant [4, 16] | Velvetleaf plant response rating [12, 15] | Plant response rating, Waterhemp [13, 14]
20: Plant response rating, Foxtail, Giant [4, 14] | Foxtail, Giant plant response rating [4, 15]
55: Plant response rating, Barnyardgrass [1, 16] | Blackgrass plant response rating [2, 17] | Plant response rating, Nutsedge, Yellow [8, 14]
98: Plant response rating, Galium [5, 16] | Lambsquarters plant response rating [6, 15] | Plant response rating, Ragweed [10, 16] | Ragweed plant response rating [10, 17] | Plant response rating, Velvetleaf [12, 16] | Velvetleaf plant response rating [12, 17] | Plant response rating, Waterhemp [13, 16]
60: Plant response rating, Blackgrass [2, 16] | Plant response rating, Crabgrass, Large [3, 16]
15: Plant response rating, Corn (corn (Zea mays); [16]) | Crabgrass, Large plant response rating [3, 15] | Crabgrass, Large plant response rating [3, 17] | Soybean plant response rating (soybean (Glycine max); [15])
30: Plant response rating, Barnyardgrass [1, 14] | Barnyardgrass plant response rating [1, 15] | Plant response rating, Blackgrass [2, 14]

CCC(=O)Oc1c(OC)nn(C)c(=O)c1-c1c(C)sc2ccc(Cl)cc12 [Compound 131]
100: Waterhemp plant response rating [13, 21]
75: Nutsedge, Yellow plant response rating [8, 21]
80: Crabgrass, Large plant response rating [3, 21] | Oilseed Rape plant response rating [9, 21] | Plant response rating, Ryegrass, Italian [11, 19]
35: Barnyardgrass plant response rating [1, 21] | Plant response rating, Foxtail, Giant [4, 18] | Plant response rating, Morningglory [7, 18] | Plant response rating, Nutsedge, Yellow [8, 19]
15: Corn plant response rating (corn (Zea mays); [21])
98: Foxtail, Giant plant response rating [4, 21] | Plant response rating, Ragweed [10, 20] | Ragweed plant response rating [10, 21] | Plant response rating, Waterhemp [13, 19] | Plant response rating, Waterhemp [13, 20]
40: Plant response rating, Blackgrass [2, 19] | Plant response rating, Blackgrass [2, 20] | Plant response rating, Oilseed Rape [9, 19]
10: Plant response rating, Barnyardgrass [1, 20] | Plant response rating, Nutsedge, Yellow [8, 18] | Plant response rating, Ryegrass, Italian [11, 18]
5: Plant response rating, Corn (corn (Zea mays); [20])
85: Plant response rating, Foxtail, Giant [4, 19] | Plant response rating, Galium [5, 18] | Plant response rating, Lambsquarters [6, 20] | Plant response rating, Morningglory [7, 20] | Plant response rating, Oilseed Rape [9, 20] | Plant response rating, Velvetleaf [12, 20]
20: Plant response rating, Crabgrass, Large [3, 19] | Plant response rating, Oilseed Rape [9, 18]
55: Plant response rating, Morningglory [7, 19] | Plant response rating, Velvetleaf [12, 19]
95: Plant response rating, Galium [5, 20] | Galium plant response rating [5, 21] | Lambsquarters plant response rating [6, 21] | Morningglory plant response rating [7, 21] | Plant response rating, Ragweed [10, 19] | Plant response rating, Ryegrass, Italian [11, 20] | Ryegrass, Italian plant response rating [11, 21] | Velvetleaf plant response rating [12, 21] | Plant response rating, Waterhemp [13, 18]
65: Plant response rating, Nutsedge, Yellow [8, 20] | Plant response rating, Ragweed [10, 18]
60: Plant response rating, Crabgrass, Large [3, 20] | Plant response rating, Lambsquarters [6, 18]
70: Plant response rating, Lambsquarters [6, 19]
90: Blackgrass plant response rating [2, 21] | Plant response rating, Foxtail, Giant [4, 20] | Plant response rating, Galium [5, 19]
0: Plant response rating, Barnyardgrass [1, 18] | Plant response rating, Barnyardgrass [1, 19] | Plant response rating, Blackgrass [2, 18] | Plant response rating, Corn (corn (Zea mays); [18]) | Plant response rating, Corn (corn (Zea mays); [19]) | Plant response rating, Crabgrass, Large [3, 18] | Plant response rating, Soybean (soybean (Glycine max); [18]) | Plant response rating, Soybean (soybean (Glycine max); [19]) | Plant response rating, Soybean (soybean (Glycine max); [20]) | Soybean plant response rating (soybean (Glycine max); [21]) | Plant response rating, Velvetleaf [12, 18]
